Experimental data from US5158950A, “1,3-dithiol-2-ylidene derivatives and process for the preparation thereof” (Yuhan Corporation, Ltd., priority 1987, dated 1992).

How the values were obtained:
[1] = system: serum ALT level after CCl4 treatment; experiment: Determination of 50% inhibitory dose (ID50) against CCl4-induced serum ALT increase; assay type: in vivo; conditions: Mus musculus; mice, oral, 6 h before CCl4; estimated from dose-response curve at 50, 25, 12.5, 6.25 mg/kg
Description: Principle The various doses of test compounds were administered to mice, followed by the treatment with CCl4 after 6 hours. 24 Hours after the CCl4 treatment, the serum ALT level of the animals were determined. The hepatoprotective effect of the test compounds and the doses were plotted to form dose-response curves. The ID50 doses of the test compounds were estimated from the dose-response curves.
Method; The experimental animals were divided into normal, CCl4 treated and test compound treated groups. Each group consisted of 8 mice with body weight of 20-25 grams. The test compounds were suspended in 0.2% CMC-Na solution and administered orally at a dose of 50 mg, 25 mg, 12.5 mg, or 6.25 mg/125 ml/kg body weight. Only the vehicle, 0.2% CMC-Na solution, was administered to the normal and to the CCl4 treated group instead of the test compound suspension. 6 Hours after the drug administration, the CCl4 solution in olive oil was administered orally to the CCl4 treated and the test compound treated groups at the dose of 50 ul/25 ml olive oil/kg body weight. The normal group was administered olive oil only at the same dose. 24 Hours after the CCl4 administration, blood samples were collected from the orbital sinus of the animals and the sera were obtained by centrifugation. The serum ALT activities were monitored and the hepatoprotective effect of the test compounds were calculated by the same method as described in experiment 1. The inhibitory percentages were plotted against the corresponding doses of the test compounds to make dose-response curves. The 50% inhibitory dose of test compound was estimated from the dose-response curve.

[2] = system: serum ALT activity induced by CCl4; experiment: Protective effect against acute hepatic damage induced by carbon tetrachloride (serum ALT); assay type: in vivo; conditions: Mus musculus; mice, 50 mg/kg oral, 6 h before CCl4 (50 ul/kg oral); ALT 24 h after CCl4; read-out: Inhibitory (%): protective effect against increase of serum ALT activity induced by CCl4
Description: Principle; Carbon tetrachloride (CCl4) is a well-known hepatotoxic agent, thus widely used to produce experimental animal models for screening the potential drugs acting upon hepatic diseases. In this experiment test compounds were administered to mice prior to treatment with CCl4. 24 Hours after the CCl4 treatment, the animals were sacrificed and serum alanine aminotransferase (ALT) levels were determined. The hepatoprotective effect of a test compound was evaluated by the suppressive action against the increase of serum ALT induced by CCl4.
Method; The experimental animals were divided into normal, CCl4 treated and test compound treated groups. Each group consisted of 8 mice with body weight of 20-25 grams. The test compounds were suspended in 0.2% sodium carboxy methyl cellulose (CMC-Na) solution and administered orally at the dose of 50 mg/125 ml/kg body weight. Only the vehicle, 0.2% CMC-Na solution, was administered to the normal and to the CCl4 treated group instead of the test compound suspension. 6 Hours after the drug administration, the CCl4 solution in olive oil was administered orally to the CCl4 treated- and the test compound treated group at the dose of 50 ul/25 ml olive oil/kg body weight. The normal group was administered olive oil only at the same dose. 24 Hours after the CCl4 administration, blood samples were collected from the orbital sinus of the animals and the sera were obtained by centrifugation The serum ALT activities were monitored using an automatic blood analyzer (Gilford, SBA 300). The hepatoprotective effect of the test compounds was expressed by the suppressive percentage against the increase of serum ALT level induced by CCl4 calculated by the following formula; [formula]

[3] = Acute oral toxicity, median lethal dose (LD50); conditions: mouse, in vivo, male ICR mice, deaths counted for 14 days
Description: Each test compound was suspended in a 0.2% CMC-Na solution in various concentrations to make test suspension. The test suspensions were administered orally to male ICR mice (10 in each group) at various doses. The number of dead mice was counted for 14 days and the value of mediam lethal dose (LD50, g/kg) was calculated by the Hitchifield-Wilcoxon method.

SMILES	ED50 [1] [mg/kg]	inhibition in vivo at 50 mg/kg [2] [%]	LD50 at 336 h [3] [mg/kg]
CC(C)OC(=O)C(C(=O)NC1CCSC1=O)=C1SC=CS1 (centres unmarked) [14(a)]	10	99.2	> 5000
CCOC(=O)C(C(=O)NC1CCSC1=O)=C1SC=CS1 (centres unmarked) [14(b), Ethyl 2-(1,3-dithiol-2-ylidene)-2-[N-(tetrahydrothiophen-2-on-3-yl)carbamoyl]acetate]	25	88.7	> 4000
CC(C)OC(=O)C(C(=O)Nc1ccccc1)=C1SC=CS1 [17(a), Isopropyl 2-(1,3-dithiol-2-ylidene)-2-(N-phenylcarbamoyl)acetate]	8	100	3000
CCC(C)OC(=O)C(C(=O)Nc1ccccc1)=C1SC=CS1 (centres unmarked) [17(b), sec-Butyl 2-(1,3-dithiol-2-ylidene)-2-(N-phenylcarbamoyl)acetate]	12.5	99.8	> 5000
CCOC(=O)C(C(=O)Nc1ccccc1)=C1SC=CS1 [17(c), Ethyl 2-(1,3-dithiol-2-ylidene)-2-(N-phenylcarbamoyl)acetate]	8	100	> 5000
COC(=O)C(C(=O)Nc1ccccc1)=C1SC=CS1 [17(d), Methyl 2-(1,3-dithiol-2-ylidene)-2-(N-phenylcarbamoyl)acetate]	20	98.2	
CC(C)OC(=O)C(C(=O)Nc1ccc(F)c(Cl)c1)=C1SC=CS1 [17(k)]	6.25	93.8	
CCOC(=O)C(C(=O)Nc1ccc(OC)cc1)=C1SC=CS1 [17(m), Ethyl 2-(1,3-dithiol-2-ylidene)-2-[N-(4-methoxyphenyl)carbamoyl]acetate]	50	61.5	
CCC(C)OC(=O)C(C(=O)Nc1ccc(OC)cc1)=C1SC=CS1 (centres unmarked) [17(n), sec-Butyl 2-(1,3-dithiol-2-ylidene)-2-[N-(4-methoxyphenyl)carbamoyl]acetate]	10	96.5	> 5000
CC(C)OC(=O)C(C(=O)Nc1ccccn1)=C1SC=CS1 [18(a), Isopropyl 2-(1,3-dithiol-2-ylidene)-2-[N-(2-pyridyl)carbamoyl]acetate]	< 6.25	99.8	4200
CCC(C)OC(=O)C(C(=O)Nc1ccccn1)=C1SC=CS1 (centres unmarked) [18(b), sec-Butyl 2-(1,3-dithiol-2-ylidene)-2-[N-(2-pyridyl)carbamoyl]acetate]	7	100	5000
CC(C)OC(=O)C(C(=O)Nc1cccnc1)=C1SC=CS1 [18(c), Isopropyl 2-(b 1,3-dithiol-2-ylidene)-2-[N-(3-pyridyl)carbamoyl]acetate]	6.25	100	
CC(C)OC(=O)C(C(=O)Nc1ccncc1)=C1SC=CS1 [18(d), Isopropyl 2-(1,3-dithiol-2-ylidene)-2-[N-(4-pyridyl)carbamoyl]acetate]	< 6.25	99.7	1100
Cc1ccnc(NC(=O)C(C(=O)OC(C)C)=C2SC=CS2)c1 [18(e), Isopropyl 2-(1,3-dithiol-2-ylidene)-2-[N-(4-methyl-2-pyridyl)carbamoyl]acetate]	20	99.7	> 5000
Cc1cccc(NC(=O)C(C(=O)OC(C)C)=C2SC=CS2)n1 [18(f), Isopropyl 2-(1,3-dithiol-2-ylidene)-2-[N-(6-methyl-2-pyridyl)carbamoyl]acetate]	12.5	100	> 5000
CC(C)OC(=O)C(C(=O)Nc1ccc(Cl)cn1)=C1SC=CS1 [18(g)]	25	77.3	> 5000
Cc1cc(NC(=O)C(C(=O)OC(C)C)=C2SC=CS2)no1 [18(h), Isopropyl 2-(1,3-dithiol-2-ylidene)-2-[N-(5-methyl-3-isoxazolyl)carbamoyl]acetate]	9	100	> 5000
CC(C)OC(=O)C(C(=O)Nc1nncs1)=C1SC=CS1 [18(i), Isopropyl 2-(1,3-dithiol-2-ylidene)-2-[N-(1,3,4-thiadiazol-2-yl)carbamoyl]acetate]	< 6.25	100	> 5000
Cc1nnc(NC(=O)C(C(=O)OC(C)C)=C2SC=CS2)s1 [18(j)]	10	100	> 5000
CC(C)OC(=O)C(C(=O)Nc1cnccn1)=C1SC=CS1 [18(l), Isopropyl 2-(1,3-dithiol-2-ylidene)-2-[N-(pyrazin-2yl)carbamoyl]acetate]	< 6.25	99.8	> 5000
CC(C)OC(=O)C(C(=O)Nc1[nH]cnc1C(N)=O)=C1SC=CS1 [18(o), Isopropy 2-(1,3-dithiol-2-ylidene)-2-[N-(4-carboxamido-5-imidazolyl)carbamoyl]acetate]	25	98.7	> 5000
CC(C)OC(=O)C(C(=O)Nc1nccs1)=C1SC=CS1 [19(a), Isopropyl 2-(b 1,3-dithiol-2-ylidene)-2-[N-(2-thiazolyl)-carbamoyl) acetate]	6.25	100	> 5000
CCOC(=O)C(C(=O)Nc1nccs1)=C1SC=CS1 [19(b)]	6.25	101	2500
CCC(C)OC(=O)C(C(=O)Nc1nccs1)=C1SC=CS1 (centres unmarked) [19(c), sec-Butyl 2-(1,3-dithiol-2-ylidene)-2-[N-(2-thiazolyl)-carbamoyl]acetate]	< 6.25	100	
Cc1csc(NC(=O)C(C(=O)OC(C)C)=C2SC=CS2)n1 [19(d), Isopropyl 2-(1,3-dithiol-2-ylidene)-2-[N-(4-methyl-2-thiazolyl)carbamoyl]acetate]	< 6.25	97.2	5000
Cc1cnc(NC(=O)C(C(=O)OC(C)C)=C2SC=CS2)s1 [19(e), Isopropyl 2-(1,3-dithiol-2-ylidene)-2-[N-(5-methyl-2-thiazolyl)carbamoyl]acetate]	25	9.2	
CC(C)OC(=O)C(C(=O)Nc1cc[nH]n1)=C1SC=CS1 [20(a), Isopropyl 2-(1,3-dithiol-2-ylidene)-2-[N-(3-pyrazolyl)-carbamoyl]acetate]	8	102	5000
CC(C)OC(=O)C(C(=O)Nc1nnn[nH]1)=C1SC=CS1 [20(b), Isopropyl 2-(1,3-dithiol-2-ylidene)-2-[N-(5-tetrazolyl)-carbamoyl]acetate]	10	99.9	5000
CC(C)OC(=O)C(C(=O)Nc1ccc(O)cc1)=C1SC=CS1 [22(a), Isopropyl 2-(1,3-dithiol-2-ylidene)-2-[N-(4-hydroxyphenyl)carbamoyl]acetate]	12.5	99.2	> 5000
CCOC(=O)C(C(=O)Nc1ccc(O)cc1)=C1SC=CS1 [22(b), Ethyl 2-(1,3-dithiol-2-ylidene)-2-[N-(4-hydroxyphenyl)-carbamoyl]acetate]	< 12.5	90.9	
